Source: patent publication EP0702683B1, “06-SUBSTITUTED GUANINE DERIVATIVES, A PROCESS FOR THEIR PREPARATION AND THEIR USE IN TREATING TUMOUR CELLS” (Cancer Research Technology Limited, priority 1993, dated 1994)
Read-outs that look alike come from different tables or passages of the source.

Assays:
ATase [1] = biological target: T1, ATase (Homo sapiens, UniProt P16455); test: In vitro ATase inactivation assay with purified recombinant human ATase; type: biochemical; parameters: made in house; conditions: for ability to inactivate recombinant human ATase: up to the highest concentration used, in words; for effectiveness in the in vitro ATase inactivation assay compared with BeG: Figure 1, in words
T1 sequence (P16455 1-207): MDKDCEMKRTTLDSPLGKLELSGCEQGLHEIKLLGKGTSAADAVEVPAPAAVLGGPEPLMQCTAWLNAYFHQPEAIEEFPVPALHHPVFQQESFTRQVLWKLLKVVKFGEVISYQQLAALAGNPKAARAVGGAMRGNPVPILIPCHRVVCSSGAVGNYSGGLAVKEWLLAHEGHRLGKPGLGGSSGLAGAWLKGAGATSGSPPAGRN
Procedure: The cDNA cloning and overexpression of the human ATase has been reported previously^23. Purification of the recombinant proteins was achieved either by affinity chromatography through a DNA-cellulose column as described by Wilkinson et al.,^25, 26, or by DEAE-cellulose ion-exchange chromatography. For the latter, the ATase protein was partially purified by ammonium sulphate precipitation (30 - 60%) and dialysed against 10 mM Tris-HCl pH 7.5, 1 mM DTT, 2 mM EDTA, 10% glycerol, before loading on a DEAF-cellulose column. The ATase was then eluted with a 0-0.1 M NaCl gradient.
Compounds to be tested were dissolved in DMSO to a final concentration of 10 mM and diluted just before use in buffer I containing 1 mg/ml bovine serum albumin (IBSA). Recombinant ATase was diluted in IBSA and titrated in order that the reaction be conducted under ATase, and not substrate, limiting conditions. In each assay, fixed amounts of ATase (60-75 fmol) were incubated with varying amounts of 0^6-benzylguanine, or test compound in a total volume of 200 µl of IBSA containing 10 µg of calf thymus DNA at 37°C for 1 hour. The [^3H]-methylated-DNA substrate (100 µl containing 6.7 µg of DNA and 100 fmol of 0^6-methylguanine) was added and incubation continued at 37° for 1 hour, until the reaction was completed. Following acid hydrolysis of the DNA as previously described^21 the [^3H]-methylated protein was recovered and quantitated by liquid scintillation counting. Samples were typically assayed in duplicate and experiments repeated several times. I50 is the concentration of inactivator required to produce a 50% reduction in ATase activity.

ATase [2] = biological target: T1, ATase; test: Inactivation of ATase activity in Raji cells; type: cell-based; parameters: endogenous in cells; host or cells: Raji; conditions: Raji cells, 2 hours at 37°C; read-out: Raji I50
Procedure: Mammalian cells were cultured under standard conditions. For example, Raji (a human lymphoblastoid cell line from a Burkitt's lymphoma) cells were grown in suspension culture in RPMI medium supplemented with 10% horse serum. A375M cells are human melanoma cells from which the xenografts described below were established following subcutaneous injection into nude mice: WiDr cells are a human colon carcinoma cell line: Hamster+120 cells are a mitozolomide-selected subline of a Chinese hamster lung fibroblast V79 cell line called RJKO: Yoshida cells are a rat carcinosarcoma cell line and YRbus is a busulphan resistant subline thereof: XP cells are an SV40-transformed fibroblast cell line originally from the skin of a Xeroderma pigmentosum patient, pHMGhAT2b cells are a clone of these cells that have been transfected with a mammalian cell expression vector containing the human ATase cDNA and pHMGla cells are a clone that have been transfected with the expression vector only (i.e. one not containing the human ATase cDNA). Cell pellets were resuspended in cold (4°C) buffer I containing 2 µg/ml leupeptin and sonicated for 10 seconds at 12 µ peak to peak distance. After cooling in ice, the cells were sonicated for a further 10 seconds at 18 µ. Immediately after sonication, 0.01 volumes of 8.7 mg/ml phenylmethanesulphonylfluoride in ethanol was added and the sonicates centrifuged at 15 000 g for 10 minutes at 4°C to pellet cell debris. The supernatant was kept for determination of ATase activity (see below).
Cells were diluted to 10^6/ml in culture medium containing either the appropriate concentration of inactivator or an equivalent volume of vehicle (DMSO). Following incubation at 37°C for 2 hours the cells were harvested by centrifugation, washed twice with PBS and the resulting cell pellets (between 1-2 x 10^7 per pellet) stored at -20°C.

[3] = Stability of inactivators at 37°C (spectrophotometric half life); type: physicochemical
Procedure: Inactivators (10mM in DMSO) were diluted to 0.1mM in prewarmed degassed buffer I (1mM EDTA, 50mM Tris pH 8.3) or PBS (pH 7-7.2). […] Samples were immediately transferred to a CARY13 spectrophotometer (cuvette block held at 37°C) and scanned at an appropriate wavelength (according to the spectral properties of the compound) at 3-10 minute intervals for up to 80 hours. The results were expressed as percentage absorbance change versus time and T1/2 values (half life) extrapolated from this.

Raji cells = test: Sensitization of Raji cells to BCNU (XTT assay); type: cell-based, human; conditions: BCNU, 2 hour pretreatment; for Raji sensitization (D90.^C/D90.^I) 0.5µM: inactivator 0.5µM; for Raji sensitization (D90.^C/D90.^I) 1.0µM: inactivator 1.0µM; for Raji sensitization (D90.^C/D90.^I) O.1µM: inactivator O.1µM
Procedure: Following a 2 hour incubation at 37°C, medium containing either increasing doses of BCNU, temozolomide or equivalent vehicle was added and the cells allowed to grow for 6 days. At this time XTT solution was added and the cells incubated for a further 4 hours at 37°C. The resulting red/orange formazan reaction product was quantified by measuring absorption at 450nm on a microtitre platereader.

A375M cells = test: Sensitization of A375M cells to BCNU (MTT assay); type: cell-based, human; conditions: for A375M sensitization (D50.^C/D50.^I) 0.5uM: inactivator 0.5uM 2 hours before; for A375M sensitization (D50.^C/D50.^I) 5.0uM: inactivator 5.0uM 2 hours before; for A375M sensitization (D50.^C/D50.^I) 1.0uM: inactivator 1.0uM 2 hours before
Procedure: Sensitization of A375M cells to the cytotoxic effects of BCNU was analysed by MTT assay ^24 differing from the XTT assay described above as follows. […] After 6 days MTT solution (4mg/ml) was added and cells incubated for 3 hours at 37°C. Medium was aspirated and the resulting purple formazan crystals were solubilised in DMSO (120μl) and cell viability was quantified by measuring absorption at 540nm using a microtitre plate reader.

[4] = 0.1mM in PBS (pH 7-7.2), read-out: T1/2(h) in PBS (converted)
[5] = 0.1mM in buffer I (1mM EDTA, 50mM Tris pH 8.3), read-out: T1/2(h) in Buffer I (converted)

CC(Oc1nc(N)nc2[nH]cnc12)c1ccccc1 (racemic) [B.4214, DL-O^6-(α -methylbenzyl)guanine, reference compound]
IC50 (ATase [1]): > 60000 nM | ability to inactivate recombinant human ATase (ATase [1]): did not inactivate ATase up to the highest concentration used

CC(Oc1nc(N)nc2[nH]cnc12)c1cccs1 (racemic) [B.4217, DL-O^6-(α -methylthenyl)guanine]
IC50 (ATase [1]): > 500000 nM | ability to inactivate recombinant human ATase (ATase [1]): did not inactivate ATase up to the highest concentration used

CC(Oc1nc(N)nc2[nH]cnc12)c1ccsc1 (racemic) [B.4219, DL-O^6-[1-(3-thienyl)ethyl]guanine]
IC50 (ATase [2]): > 1000 nM | half-life at 100 µM [3, 4]: 0.12 h | Raji sensitization (D90.^C/D90.^I) 0.5µM (Raji cells): 1.0 | Raji sensitization (D90.^C/D90.^I) 1.0µM (Raji cells): 1.0 | Raji sensitization (D90.^C/D90.^I) O.1µM (Raji cells): 1.0 | IC50 (ATase [1]): 85000 nM

Nc1nc(OCc2ccsc2)c2nc[nH]c2n1 [B.4206, O^6-(3-thienylmethyl)guanine]
IC50 (ATase [2]): 60 nM | half-life at 100 µM [3, 4]: > 16 h | half-life at 100 µM [3, 5]: > 80 h | Raji sensitization (D90.^C/D90.^I) 1.0µM (Raji cells): 6.0 | Raji sensitization (D90.^C/D90.^I) O.1µM (Raji cells): 1.6 | A375M sensitization (D50.^C/D50.^I) 0.5uM (A375M cells): 3.3 | A375M sensitization (D50.^C/D50.^I) 5.0uM (A375M cells): 4.6 | IC50 (ATase [1]): 30 nM | effectiveness in the in vitro ATase inactivation assay compared with BeG (ATase [1]): somewhat more effective than BeG

Nc1nc(OCc2ccoc2)c2nc[nH]c2n1 [B.4209, O^6-(3-furylmethyl)guanine]
IC50 (ATase [2]): 150 nM | half-life at 100 µM [3, 4]: > 16 h | Raji sensitization (D90.^C/D90.^I) 0.5µM (Raji cells): 1.4 | Raji sensitization (D90.^C/D90.^I) 1.0µM (Raji cells): 2.8 | Raji sensitization (D90.^C/D90.^I) O.1µM (Raji cells): 1.5 | A375M sensitization (D50.^C/D50.^I) 1.0uM (A375M cells): 2.5 | IC50 (ATase [1]): 150 nM

Nc1nc(OCc2ccccn2)c2nc[nH]c2n1 [B.4210, O^6-(2-picolyl)guanine]
half-life at 100 µM [3, 4]: > 16 h | A375M sensitization (D50.^C/D50.^I) 1.0uM (A375M cells): 1.5

Nc1nc(OCc2cccnc2)c2[nH]cnc2n1 [B.4211, O^6-(3-picolyl)guanine]
half-life at 100 µM [3, 4]: > 16 h | IC50 (ATase [1]): 430 nM

Nc1nc(OCc2ccc3c(c2)OCO3)c2nc[nH]c2n1 [B.4212, O^6-piperonylguanine]
IC50 (ATase [2]): 50 nM | half-life at 100 µM [3, 4]: 0.72 h | half-life at 100 µM [3, 5]: 1.3 h | Raji sensitization (D90.^C/D90.^I) 1.0µM (Raji cells): 10.7 | Raji sensitization (D90.^C/D90.^I) O.1µM (Raji cells): 2.7 | A375M sensitization (D50.^C/D50.^I) 0.5uM (A375M cells): 2.3 | A375M sensitization (D50.^C/D50.^I) 5.0uM (A375M cells): 2.5 | IC50 (ATase [1]): 20 nM | effectiveness in the in vitro ATase inactivation assay compared with BeG (ATase [1]): considerably better

Cc1ccccc1COc1nc(N)nc2[nH]cnc12 [B.4218, O^6-(2-methylbenzyl)guanine, reference compound]
IC50 (ATase [1]): 58000 nM

Nc1nc(OCc2cccc3ccccc23)c2nc[nH]c2n1 [B.4265, O^6-(1-naphthylmethyl)guanine]
half-life at 100 µM [3, 5]: 60 h | IC50 (ATase [1]): 95000 nM

Nc1nc(OCc2cc3ccccc3o2)c2nc[nH]c2n1 [B.4266, O^6-(2-benzofuranylmethyl)guanine]
half-life at 100 µM [3, 4]: > 16 h | A375M sensitization (D50.^C/D50.^I) 0.5uM (A375M cells): 6.3 | A375M sensitization (D50.^C/D50.^I) 5.0uM (A375M cells): 6.3 | IC50 (ATase [1]): 35 nM

Nc1nc(OCc2ccc3c(c2)OCO3)c2ncn([C@@H]3O[C@H](CO)[C@@H](O)[C@H]3O)c2n1 [B.4268, O^6-piperonylguanosine]
half-life at 100 µM [3, 4]: 8 h | IC50 (ATase [1]): 750 nM

Nc1nc(OCc2ccc(Br)s2)c2nc[nH]c2n1 [B.4269, O^6-(5-bromothenyl)guanine]
IC50 (ATase [2]): 6 nM | IC50 (ATase [1]): 4.5 nM

Nc1nc(OCc2cnc3c(c2)OCO3)c2nc[nH]c2n1 [B.4271, O^6-(5-azapiperonyl)guanine]
half-life at 100 µM [3, 4]: > 16 h | IC50 (ATase [1]): 230 nM

N#Cc1ccc(COc2nc(N)nc3[nH]cnc23)o1 [B.4273, O^6-(5-cyanofurfuryl)guanine]
IC50 (ATase [1]): 6 nM

Nc1nc(OCc2cnco2)c2nc[nH]c2n1 [B.4274, O^6-(5-oxazolylmethyl)guanine]
IC50 (ATase [1]): 340 nM

Nc1nc(OCc2cncs2)c2nc[nH]c2n1 [B.4275, O^6-(5-thiazolylmethyl)guanine]
IC50 (ATase [1]): 33 nM

Nc1nc(OCc2cc3ccccc3s2)c2ncn([C@@H]3O[C@H](CO)[C@@H](O)[C@H]3O)c2n1 [B.4276, O^6-(2-benzo[b]thienylmethyl)guanosine]
IC50 (ATase [1]): 350 nM

Nc1nc(OCc2ccncc2)c2nc[nH]c2n1 [B.4277, O^6-(4-picolyl)guanine]
IC50 (ATase [1]): 130 nM

Cn1cc([N+](=O)[O-])cc1COc1nc(N)nc2[nH]cnc12 [B.4278, O^6(1-methyl-4-nitropyrrol-2-ylmethyl) guanine]
IC50 (ATase [1]): 550 nM

Nc1nc(OCc2cccs2)c2ncn([C@@H]3O[C@H](CO)[C@@H](O)[C@H]3O)c2n1 [B.4279, O^6-thenylguanosine]
IC50 (ATase [1]): 900 nM

C=CCOc1nc(N)nc2[nH]cnc12 [O^6-allylguanine, reference compound]
half-life at 100 µM [3, 5]: > 64 h | A375M sensitization (D50.^C/D50.^I) 0.5uM (A375M cells): 1.3 | A375M sensitization (D50.^C/D50.^I) 5.0uM (A375M cells): 1.9 | IC50 (ATase [1]): 22000 nM

O^6-(2-methoxybenzyl)guanine [B.4231, reference compound]
IC50 (ATase [1]; recombinant human ATase incubated with inactivator 1 hour at 37°C before substrate, read-out: I50): 60000 nM
